Values joined by “and” are separate entries in the source; they are usually repeats but may differ in a detail not shown here. Equal entries are not always repeated. Toxic doses and inconclusive results are not listed. Cut-off read from the data, not from the text of the source: active = T/C of 150% or more; inactive = T/C below 125%.
Test system: L1210 leukemia ip in BDF1 mice, survival T/C
Assay: NCI In Vivo Anticancer Drug Screen. Data for tumor model L1210 Leukemia (intraperitoneal) in B6D2F1 (BDF1) mice
Conditions: endpoint: mean survival time, higher = longer survival
Summary of the method: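 Survival endpoint. Drug-treated group vs vehicle group, expressed as T divided by C. Tumor passaged by transplantation.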

[1] = dose: 100.0 mg/kg/injection, schedule: Q01DX009 (ip), vehicle: Klucel (hydroxypropylcellulose) (HPC)
[2] = dose: 100.0 mg/kg/injection, schedule: Q04DX002 (ip), vehicle: Klucel (hydroxypropylcellulose) (HPC)
[3] = dose: 200.0 mg/kg/injection, schedule: Q01DX009 (ip), vehicle: Klucel (hydroxypropylcellulose) (HPC)
[4] = dose: 200.0 mg/kg/injection, schedule: Q04DX002 (ip), vehicle: Klucel (hydroxypropylcellulose) (HPC)
[5] = dose: 400.0 mg/kg/injection, schedule: Q01DX009 (ip), vehicle: Klucel (hydroxypropylcellulose) (HPC)
[6] = dose: 400.0 mg/kg/injection, schedule: Q04DX002 (ip), vehicle: Klucel (hydroxypropylcellulose) (HPC)
[7] = dose: 100.0 mg/kg/injection, schedule: Q01DX001 (ip), vehicle: saline
[8] = dose: 200.0 mg/kg/injection, schedule: Q01DX001 (ip), vehicle: saline
[9] = dose: 400.0 mg/kg/injection, schedule: Q01DX001 (ip), vehicle: saline
[10] = dose: 100.0 mg/kg/injection, schedule: Q01DX001 (ip), vehicle: Klucel (hydroxypropylcellulose) (HPC)
[11] = dose: 12.5 mg/kg/injection, schedule: Q04DX003 (ip), vehicle: Klucel (hydroxypropylcellulose) (HPC)
[12] = dose: 25.0 mg/kg/injection, schedule: Q04DX003 (ip), vehicle: Klucel (hydroxypropylcellulose) (HPC)
[13] = dose: 50.0 mg/kg/injection, schedule: Q04DX003 (ip), vehicle: Klucel (hydroxypropylcellulose) (HPC)
[14] = dose: 100.0 mg/kg/injection, schedule: Q04DX003 (ip), vehicle: Klucel (hydroxypropylcellulose) (HPC)
[15] = dose: 200.0 mg/kg/injection, schedule: Q04DX003 (ip), vehicle: Klucel (hydroxypropylcellulose) (HPC)
[16] = dose: 100.0 mg/kg/injection, schedule: Q04DX003 (ip), vehicle: saline with Tween-80
[17] = dose: 200.0 mg/kg/injection, schedule: Q04DX003 (ip), vehicle: saline with Tween-80
[18] = dose: 75.0 mg/kg/injection, schedule: Q01DX009 (ip), vehicle: Klucel (hydroxypropylcellulose) (HPC)
[19] = dose: 150.0 mg/kg/injection, schedule: Q01DX009 (ip), vehicle: Klucel (hydroxypropylcellulose) (HPC)
[20] = dose: 300.0 mg/kg/injection, schedule: Q01DX009 (ip), vehicle: Klucel (hydroxypropylcellulose) (HPC)
[21] = dose: 100.0 mg/kg/injection, schedule: Q01DX009 (ip), vehicle: saline
[22] = dose: 200.0 mg/kg/injection, schedule: Q01DX009 (ip), vehicle: saline
[23] = dose: 400.0 mg/kg/injection, schedule: Q01DX009 (ip), vehicle: saline
[24] = dose: 100.0 mg/kg/injection, schedule: Q04DX003 (ip), vehicle: saline
[25] = dose: 200.0 mg/kg/injection, schedule: Q04DX003 (ip), vehicle: saline

Measured: T/C

O=c1[nH]cnc2c1ncn2C1OC(CI)C(O)C1O (stereo not drawn)
inactive: dose: 100.0 mg/kg/injection, schedule: Q01DX005 (ip), vehicle: saline 95 % of control | dose: 200.0 mg/kg/injection, schedule: Q01DX005 (ip), vehicle: saline 101 % of control

CN(C(=N)N)c1ccc(C(=O)Oc2ccc([N+](=O)[O-])cc2)cc1
inactive: dose: 50.0 mg/kg/injection, schedule: Q01DX009 (ip), vehicle: water 90 % of control | dose: 100.0 mg/kg/injection, schedule: Q01DX009 (ip), vehicle: water 97 % of control and 105 % of control | dose: 100.0 mg/kg/injection, schedule: Q04DX003 (ip), vehicle: water 103 % of control | dose: 200.0 mg/kg/injection, schedule: Q01DX009 (ip), vehicle: water 96 % of control and 100 % of control | dose: 200.0 mg/kg/injection, schedule: Q04DX003 (ip), vehicle: water 100 % of control

O=C1Nc2ncnn2C1=O
inactive: dose: 100.0 mg/kg/injection, schedule: Q01DX005 (ip), vehicle: Klucel (hydroxypropylcellulose) (HPC) 98 % of control | [1] 101 % of control | [2] 93 % of control | dose: 200.0 mg/kg/injection, schedule: Q01DX005 (ip), vehicle: Klucel (hydroxypropylcellulose) (HPC) 98 % of control | [3] 93 % of control | [4] 96 % of control | dose: 400.0 mg/kg/injection, schedule: Q01DX005 (ip), vehicle: Klucel (hydroxypropylcellulose) (HPC) 98 % of control | [5] 101 % of control | [6] 104 % of control

CC(=O)C(Sc1ccccc1[N+](=O)[O-])C(C)=O.[Co]
inactive: dose: 50.0 mg/kg/injection, schedule: Q01DX001 (ip), vehicle: other 92 % of control | dose: 100.0 mg/kg/injection, schedule: Q01DX001 (ip), vehicle: other 92 % of control | dose: 200.0 mg/kg/injection, schedule: Q01DX001 (ip), vehicle: other 92 % of control | dose: 400.0 mg/kg/injection, schedule: Q01DX001 (ip), vehicle: other 100 % of control

Cc1nc2ccccc2c(Oc2ccccc2)c1-c1ccccc1
inactive: dose: 50.0 mg/kg/injection, schedule: Q01DX001 (ip), vehicle: saline 102 % of control | [7] 102 % of control | [8] 104 % of control | [9] 96 % of control

CCCCc1c(-c2ccccc2)nc(N)[nH]c1=O
inactive: [10] 103 % of control | dose: 200.0 mg/kg/injection, schedule: Q01DX001 (ip), vehicle: Klucel (hydroxypropylcellulose) (HPC) 102 % of control | dose: 400.0 mg/kg/injection, schedule: Q01DX001 (ip), vehicle: Klucel (hydroxypropylcellulose) (HPC) 104 % of control

Cc1ccc(Br)cc1Br
inactive: [7] 96 % of control | [8] 100 % of control | [9] 94 % of control

S=C1NCc2ccccc2N1
inactive: [11] 93 % of control | [12] 95 % of control | [13] 103 % of control | [10] 102 % of control

COc1cc(OC)c2c(c1)-n1cccc1C2=O
inactive: [2] 101 % of control | [4] 104 % of control | [6] 93 % of control

O=C(c1ccccc1)C1C(c2ccccc2)N1C(=O)c1ccccc1 (stereo not drawn)
inactive: [1] 94 % of control | [14] 102 % of control | [3] 101 % of control | [15] 90 % of control | [5] 89 % of control | dose: 400.0 mg/kg/injection, schedule: Q04DX003 (ip), vehicle: Klucel (hydroxypropylcellulose) (HPC) 90 % of control

Cc1ccc(-n2c(=S)[nH]c3ccccc3c2=O)cc1F
inactive: [16] 94 % of control | [17] 93 % of control | dose: 400.0 mg/kg/injection, schedule: Q04DX003 (ip), vehicle: saline with Tween-80 89 % of control

O=C(O)c1ccc2c(ccc3ccc4ccccc4c32)c1
inactive: [11] 100 % of control | [12] 89 % of control | [13] 96 % of control | [14] 97 % of control | [15] 106 % of control

Nc1cc(S(=O)O)c2cccnc2c1O
inactive: [18] 88 % of control | [14] 97 % of control | [19] 108 % of control | [15] 95 % of control | [20] 93 % of control

CCOC(=O)CNc1cccc(Cl)c1
inactive: [2] 107 % of control | [4] 103 % of control | [6] 96 % of control

O=C(O)/C=C/C(=O)NCCC(=O)O
inactive: [21] 114 % of control | [22] 115 % of control | [23] 109 % of control

S=P(NCCCCCCCNP(=S)(N1CC1)N1CC1)(N1CC1)N1CC1
inactive: dose: 100.0 mg/kg/injection, schedule: Q01DX001 (ip), vehicle: carboxymethylcellulose (CMC) 106 % of control | dose: 200.0 mg/kg/injection, schedule: Q01DX001 (ip), vehicle: carboxymethylcellulose (CMC) 98 % of control | dose: 400.0 mg/kg/injection, schedule: Q01DX001 (ip), vehicle: carboxymethylcellulose (CMC) 104 % of control

CC(Cl)(Cl)CC(O)(C(F)(F)F)C(F)(F)F
inactive: dose: 50.0 mg/kg/injection, schedule: Q04DX003 (ip), vehicle: saline with Tween-80 95 % of control | [16] 105 % of control | [17] 91 % of control

O=C(c1ccccc1)c1cc(Cl)ccc1O
inactive: [18] 102 % of control | [2] 100 % of control | [19] 98 % of control | [4] 93 % of control | [20] 94 % of control | [6] 96 % of control

O=C(N[C@@H](c1ccccc1)[C@H](N=Cc1ccccc1)c1ccccc1)c1ccccc1
inactive: dose: 50.0 mg/kg/injection, schedule: Q01DX009 (ip), vehicle: saline 93 % of control | dose: 50.0 mg/kg/injection, schedule: Q04DX003 (ip), vehicle: saline 95 % of control | [21] 90 % of control | [24] 86 % of control and 92 % of control | [22] 87 % of control | [25] 94 % of control | [23] 95 % of control and 87 % of control | dose: 400.0 mg/kg/injection, schedule: Q04DX003 (ip), vehicle: saline 86 % of control and 92 % of control

O=C(Oc1ccc(O)cc1)c1ccccc1
inactive: dose: 25.6 mg/kg/injection, schedule: Q04DX002 (ip), vehicle: saline 88 % of control | dose: 64.0 mg/kg/injection, schedule: Q04DX002 (ip), vehicle: saline 95 % of control | dose: 160.0 mg/kg/injection, schedule: Q04DX002 (ip), vehicle: saline 92 % of control | dose: 400.0 mg/kg/injection, schedule: Q04DX002 (ip), vehicle: saline 92 % of control

O=C(N1CCOCC1)C1(c2ccccc2)CCNCC1
inactive: [24] 98 % of control | [25] 93 % of control

From PubChem BioAssay AID248 (DTP/NCI, 2004)
